“And” between values parts separate entries of the source, which are not always exact repeats. Equal entries are not always repeated.
Columns and labels:
human P450 51A1 [1] = target: T1, human P450 51A1 (Homo sapiens, UniProt Q16850); test: Steady-state LC-UV assay of sterol oxidation to dihydro FF-MAS by reconstituted P450 51A1
T1 sequence (Q16850 1-509): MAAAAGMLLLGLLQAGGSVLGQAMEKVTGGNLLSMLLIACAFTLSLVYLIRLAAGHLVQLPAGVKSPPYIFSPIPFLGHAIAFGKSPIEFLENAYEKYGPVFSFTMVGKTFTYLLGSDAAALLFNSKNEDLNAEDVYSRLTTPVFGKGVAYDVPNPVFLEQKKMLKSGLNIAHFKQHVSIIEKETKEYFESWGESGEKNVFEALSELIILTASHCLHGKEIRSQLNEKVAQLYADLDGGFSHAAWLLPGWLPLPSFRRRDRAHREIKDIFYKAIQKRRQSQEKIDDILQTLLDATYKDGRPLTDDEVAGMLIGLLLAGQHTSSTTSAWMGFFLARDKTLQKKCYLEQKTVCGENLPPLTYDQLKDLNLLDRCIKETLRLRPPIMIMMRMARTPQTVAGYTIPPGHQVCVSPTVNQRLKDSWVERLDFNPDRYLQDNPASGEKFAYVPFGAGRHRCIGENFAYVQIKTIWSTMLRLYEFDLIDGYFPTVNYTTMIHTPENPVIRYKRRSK
Procedure: Steady-state incubations (500 μl) were generally done at 37 °C with 0.025 μM P450 51A1, 0.10 μM NADPH-P450 reductase, 100 μM L-α-dilauroyl-sn-glycero-3-phosphocholine, 50 mM potassium phosphate buffer (pH 7.4), 10% (v/v) glycerol, and an indicated concentration of each sterol (in 45% (w/v) HPCD). […] The sterols (stored at 4 °C) were prepared as described above and were heated to 37 °C and sonicated prior to use. Sterol working stocks were diluted in HPCD to ensure a constant concentration of cyclodextrin in each reaction. […] Accordingly, all reactions were done with this concentration of glycerol.
Reactions were preincubated (5 min, 37 °C) prior to initiation with an NADPH-regenerating system (0.5 mM NADP^+, 10 mM glucose 6-phosphate, and 2 μg ml^−1 glucose 6-phosphate dehydrogenase) ([60]) and were stopped after 5 min with the addition of CH2Cl2 (5 ml). (The NADPH-generating system, in addition to lower cost than NADPH, drives the reaction to avoid inhibition of the reductase by accumulated NADP^+). For the 14α-aldehyde, the times of preincubation and reaction were reduced (to 2 min and 1 min, respectively). The quenched mixture was centrifuged (2000g, 5 min), and 4 ml of the bottom (organic) layer was transferred to vials and brought to dryness under a stream of N2 gas. The dried residue was resuspended in CH3OH (100 μl) and was analyzed by UPLC using a 2.1 mm × 100 mm (1.7 μm) octadecylsilane (C18) column (held at 25 °C) and a Waters Acquity UPLC system. Samples (4 °C) were injected (10 μl) at a flow rate of 0.20 ml min^−1 using an isocratic mobile phase of CH3CN (only). The product (FF-MAS) was detected using a Waters Acquity photodiode array detector set at 250 nm (Fig. 4B). Data were processed using the MassLynx software (http://www.waters.com/waters/en_US/MassLynx-Mass-Spectrometry-Software-/nav.htm?cid=513164&locale=en_US), and the amount of product formed was calculated by comparison to a twelve-point dihydro FF-MAS standard curve. Determination of kcat and Km for each reaction was carried out by fitting the data to a Michaelis–Menten hyperbola, which was done using GraphPad Prism.
Incubations were run in triplicate, and the mean values (±SD) were calculated and plotted. The linear regression fits include the Prism error estimates for internal fitting (SE).

human P450 51A1 [2] = target: T1, human P450 51A1; test: Single-turnover rapid-quench kinetics of [3-3H]-dihydrolanosterol oxidation (radio-HPLC); type: biochemical; design: made in house; host or cells: Escherichia coli
Procedure: All products were separated and quantified by radio-HPLC (Fig. S24).
Samples (held at 4 °C) were injected (45 μl) onto a Nova-Pak 3.9 mm × 150 mm (4 μm) octadecylsilane (C18) HPLC column (held at 23 °C). The products were separated at a flow rate of 1.0 ml min^−1 using an isocratic mobile phase composed of CH3CN (only) as was done for the LC-UV assays (above). The eluate from the column was mixed (1:2, v-v) with FlowLogic U scintillation cocktail, and radioactivity (^3H) was detected on a β-RAM Model 5 system (IN/US, LabLogic) (Fig. S24). Product formation was assessed as the relative contribution of each peak (in CPM) to the summed peak area of substrate and product(s).
The single-turnover experiments were performed using a KinTek rapid quench-flow apparatus (KinTek). This machine functions by forcing equal volumes (∼19 μl) of two separate solutions into a central mixing chamber, where the components are allowed to incubate for a predetermined period of time before an excess volume of quench solution (∼160 μl) stops the reaction and expels the mixture from the apparatus. […] After the predetermined incubation period, the reaction (37 °C) was quenched with HCl (1 M), and the mixture (∼200 μl) was collected into vials. The products of five identical reactions (time points) were combined and were extracted into CH2Cl2 (5 ml). An aliquot (4 ml) of the lower (organic) layer was removed into a fresh vial, and the extraction was repeated to maximize sample recovery. The pooled organic fraction (∼8 ml) was brought to dryness under a stream of N2 gas, and the residue was redissolved in 60 μl of CH3OH and transferred to LC vials for analysis.

[3] = time 0.05 s, start 7 µM dihydrolanosterol

| SMILES | concentration in single-turnover reaction (human P450 51A1 [2]; [3]) [µM] | concentration in single-turnover reaction (human P450 51A1 [2]; time 0.1 s) [µM] | concentration in single-turnover reaction (human P450 51A1 [2]; time 0.15 s) [µM] | concentration in single-turnover reaction (human P450 51A1 [2]; time 0.2 s) [µM] | concentration in single-turnover reaction (human P450 51A1 [2]; time 0.3 s) [µM] | concentration in single-turnover reaction (human P450 51A1 [2]; time 0.4 s) [µM] | concentration in single-turnover reaction (human P450 51A1 [2]; time 0.6 s) [µM] | concentration in single-turnover reaction (human P450 51A1 [2]; time 0.8 s) [µM] | concentration in single-turnover reaction (human P450 51A1 [2]; time 1 s) [µM] | concentration in single-turnover reaction (human P450 51A1 [2]; time 1.2 s) [µM] | concentration in single-turnover reaction (human P450 51A1 [2]; time 1.6 s) [µM] | concentration in single-turnover reaction (human P450 51A1 [2]; time 2 s) [µM] | concentration in single-turnover reaction (human P450 51A1 [2]; time 3 s) [µM] | concentration in single-turnover reaction (human P450 51A1 [2]; time 4 s) [µM] | concentration in single-turnover reaction (human P450 51A1 [2]; time 7 s) [µM] | also measured |
| --- | --- | --- | --- | --- | --- | --- | --- | --- | --- | --- | --- | --- | --- | --- | --- | --- |
| CC(C)CCCC(C)[C@H]1CC[C@@]2(C=O)C3=C(CC[C@]12C)[C@@]1(C)CC[C@H](O)C(C)(C)C1CC3 (stereo partly drawn) [14α-CHO dihydrolanosterol, 24,25-dihydro-14α-formyl lanosterol] | 0 | 0.8505 | 1.1396 | 1.6401 | 1.848 | 1.8837 | 1.7976 | 1.4126 | 1.4476 | 1.3349 | 0.8218 | 0.7105 | 0 | 0 | 0 | kcat relative to dihydrolanosterol (human P450 51A1 [1]; oxidation to dihydro FF-MAS): about 3 fold; kcat/Km relative to dihydrolanosterol (human P450 51A1 [1]; oxidation to dihydro FF-MAS): about 3 fold; Rate of FF-MAS formation (replicates) (human P450 51A1 [1]; substrate 0.25 µM, listed as 14-CHO dihydrolanosterol): 2.969 min⁻¹ and 3.528 min⁻¹ and 3.126 min⁻¹; Rate of FF-MAS formation (replicates) (human P450 51A1 [1]; substrate 0.50 µM, listed as 14-CHO dihydrolanosterol): 7.815 min⁻¹ and 6.139 min⁻¹ and 6.658 min⁻¹; Rate of FF-MAS formation (replicates) (human P450 51A1 [1]; substrate 0.75 µM, listed as 14-CHO dihydrolanosterol): 11.25 min⁻¹ and 9.099 min⁻¹ and 10.0823 min⁻¹; Rate of FF-MAS formation (replicates) (human P450 51A1 [1]; substrate 1.00 µM, listed as 14-CHO dihydrolanosterol): 13.4 min⁻¹ and 13.67 min⁻¹ and 13.3 min⁻¹; Rate of FF-MAS formation (replicates) (human P450 51A1 [1]; substrate 1.50 µM, listed as 14-CHO dihydrolanosterol): 18.85 min⁻¹ and 19.74 min⁻¹ and 19.25 min⁻¹; Rate of FF-MAS formation (replicates) (human P450 51A1 [1]; substrate 2.50 µM, listed as 14-CHO dihydrolanosterol): 28.46 min⁻¹ and 30.67 min⁻¹ and 32.21 min⁻¹; Rate of FF-MAS formation (replicates) (human P450 51A1 [1]; substrate 5.00 µM, listed as 14-CHO dihydrolanosterol): 52.7446 min⁻¹ and 50.4 min⁻¹ and 54.73 min⁻¹; Rate of FF-MAS formation (replicates) (human P450 51A1 [1]; substrate 7.50 µM, listed as 14-CHO dihydrolanosterol): 65.76 min⁻¹ and 62.41 min⁻¹ and 66.11 min⁻¹; Rate of FF-MAS formation (replicates) (human P450 51A1 [1]; substrate 10.00 µM, listed as 14-CHO dihydrolanosterol): 70.12 min⁻¹ and 63.34 min⁻¹ and 67.78 min⁻¹; Rate of FF-MAS formation (replicates) (human P450 51A1 [1]; substrate 15.00 µM, listed as 14-CHO dihydrolanosterol): 72.18 min⁻¹ and 76.97 min⁻¹ and 69.96 min⁻¹ |
| CC(C)CCCC(C)[C@H]1CC[C@@]2(C)C3=C(CC[C@]12C)[C@@]1(C)CC[C@H](O)C(C)(C)C1CC3 (some centres unmarked) [dihydrolanosterol, 24,25-dihydrolanosterol] | 4.7572 | 2.9911 | 2.8308 | 1.974 | 2.0671 | 1.9166 | 1.5253 | 1.5841 | 1.0563 | 1.1711 | 1.3601 | 1.0864 | 1.1137 | 0.3647 | 0 | kcat (human P450 51A1 [1]; oxidation to dihydro FF-MAS (epi-dihydro FF-MAS from epi substrate), 37 °C): 0.50 ± 0.03 s⁻¹ and 0.50 s⁻¹; Rate of FF-MAS formation (replicates) (human P450 51A1 [1]; substrate 0.25 µM): 0.9 min-1 and 1.0 min-1 (2×); Rate of FF-MAS formation (replicates) (human P450 51A1 [1]; substrate 0.50 µM): 2.4 min-1 (2×) and 2.1 min-1; Rate of FF-MAS formation (replicates) (human P450 51A1 [1]; substrate 0.75 µM): 3.4 min⁻¹ and 3.0 min⁻¹ and 3.7 min⁻¹; Rate of FF-MAS formation (replicates) (human P450 51A1 [1]; substrate 1.00 µM): 4.1 min⁻¹ and 4.3 min⁻¹ and 3.4 min⁻¹; Rate of FF-MAS formation (replicates) (human P450 51A1 [1]; substrate 1.50 µM): 4.8 min⁻¹ and 6.3 min⁻¹ and 5.8 min⁻¹; Rate of FF-MAS formation (replicates) (human P450 51A1 [1]; substrate 2.50 µM): 12.8 min⁻¹ and 12.1 min⁻¹ and 9.4 min⁻¹; Rate of FF-MAS formation (replicates) (human P450 51A1 [1]; substrate 5.00 µM): 16.4 min-1 and 15.6 min-1 (2×); Rate of FF-MAS formation (replicates) (human P450 51A1 [1]; substrate 7.50 µM): 21.8 min⁻¹ and 17.6 min⁻¹ and 18.3 min⁻¹; Rate of FF-MAS formation (replicates) (human P450 51A1 [1]; substrate 10.00 µM): 20.3 min⁻¹ and 21.5 min⁻¹ and 22.5 min⁻¹; Rate of FF-MAS formation (replicates) (human P450 51A1 [1]; substrate 15.00 µM): 19.1 min⁻¹ and 23.3 min⁻¹ and 21.3 min⁻¹; kobs/Kd (human P450 51A1 [2]; first step, 7 s^−1/0.23 μM): 3e+07 M⁻¹ s⁻¹; fraction of initial material persisting until > 4 s (human P450 51A1 [2]; single turnover): ~20%; time in which the reaction was completed (human P450 51A1 [2]; single turnover): 7 s; time of 50% decrease of substrate concentration (human P450 51A1 [2]; single turnover): 0.10 s; first-order exponential decay rate of substrate concentration (human P450 51A1 [2]; single turnover, 37 °C): 8.7 s⁻¹; apparent rate of overall oxidation to dihydro FF-MAS, single exponential fit (human P450 51A1 [2]; single turnover, even with the lag): 0.8 s⁻¹ |
